Experimental data reported in patent US20230364230A1, “COMBINATION THERAPY FOR CANCER” (ENGMAB SÀRL, priority 2020, published 2023).

What was measured:
Aiolos [1] = molecular target: T1, Aiolos (Homo sapiens, UniProt Q96SW2+Q9UKT9); assay: Aiolos expression by western blot in DLBCL cells; assay type: cell-based; design: endogenous in cells; host or cells: Karpas 422, WSU-DLCL2, U2932 and TMD8 DLBCL cells; settings: Karpas 422, WSU-DLCL2, U2932 and TMD8 cells, 0.1, 1, or 10 μM
Protocol: (§1) Karpas 422, WSU-DLCL2, U2932 and TMD8 cells were treated with avadomide at a concentration of 0.1, 1, or 10 μM. The expression of Aiolos, Ikaros, […] and IRF4 were measured by western blot.

[2] = system: interferon stimulated genes; assay: Induction of interferon stimulated genes in DLBCL cells; assay type: cell-based; settings: correlated with degradation of Aiolos and Ikaros
Protocol: as §1
The induction of interferon stimulated genes was correlated with the degradation of Aiolos and Ikaros. […] Such direct regulation was shown using Chromatin Immunoprecipitation sequencing (ChIP-seq) analysis and generic methods, see, e.g., Hagner et al, Blood, 126(6):779-789 (2015), which is incorporated by reference in its entirety.

NKG2D+ NK cells = assay: Surface expression of NKG2D on NK cells in DLBCL patient PBMC; assay type: cell-based, human; settings: PBMCs treated 1 hour prior to anti-CD3 stimulation for 3 days
Protocol: Surface expression of NKG2D was measured by flow cytometry gated on live CD3-CD19-CD14-CD56+CD16+NK cells.

Ikaros [3] = molecular target: T2, Ikaros (Homo sapiens, UniProt Q13422+Q96SW2); assay: Degradation of Ikaros in primary NK cells (intracellular staining, flow cytometry); assay type: cell-based; design: endogenous in cells; host or cells: primary human NK cells gated from healthy-donor PBMCs; settings: PBMCs from healthy donors (n=7), dose titrations, 5 hours
Protocol: (§2) Intracellular staining of Aiolos and Ikaros in primary human NK cells was performed by flow cytometry gating on live, CD3-CD4-CD8-CD56+CD16+NK cell populations.

Ikaros [4] = molecular target: T2, Ikaros; assay: Ikaros expression by western blot in DLBCL cells; assay type: cell-based; design: endogenous in cells; host or cells: Karpas 422, WSU-DLCL2, U2932 and TMD8 DLBCL cells; settings: Karpas 422, WSU-DLCL2, U2932 and TMD8 cells, 0.1, 1, or 10 μM
Protocol: as §1

Aiolos [5] = molecular target: T1, Aiolos; assay: Degradation of Aiolos in primary NK cells (intracellular staining, flow cytometry); assay type: cell-based; design: endogenous in cells; host or cells: primary human NK cells gated from healthy-donor PBMCs; settings: PBMCs from healthy donors (n=7), dose titrations, 5 hours
Protocol: as §2

NK cells = assay: NK cell proliferation in DLBCL patient PBMCs stimulated with anti-CD3; assay type: cell-based, human; settings: PBMCs treated 1 hour prior to anti-CD3 stimulation for 3 days
Protocol: Percentage of NK cells was analyzed via flow cytometry gated on live CD3-CD19-CD14-CD56+CD16+NK cells. Cytokinic NK cells were […]16^low and cytotoxic NK cells were CD56^lowCD16^high populations.

TMD8 cells = assay: HLA-DR and CD86 expression in TMD8 cells by flow cytometry; assay type: cell-based; settings: 48 hours
Protocol: DLBCL cell line TMD8 was treated with avadomide for 48 hours. […] The result corroborated the ChIP-seq analysis (FIG. 10B).

H929 target cells [6] = assay: Protein 1 induced ADCC after pretreatment of PBMCs with different concentrations (H929 lysis, flow cytometry); assay type: cell-based, human; settings: for % lysis with Protein 1: 0.1 nM Protein 1, % change from DMSO control + Protein 1; for % lysis without Protein 1: % change from DMSO control
Protocol: PBMCs from two healthy donors were pre-incubated for 24 hours or 48 hours in the presence of CC-92480 or a DMSO control. CC-92480 was added at 0.001 nM, 0.01 nM, 0.1 nM, 1 nM and 10 nM concentrations. After pretreatment, PBMCs were incubated for an additional 18 hours or overnight in the presence of H929 target cells with or without the addition of 0.1 nM of Protein 1. Samples were analyzed via flow cytometry for H929 depletion. Specific lysis was calculated as following: (1−((test sample H929 count)/(H929 count in DMSO control without Protein 1)))*100. PBMCs from two healthy donors were pre-incubated for 24 hours or 48 hours in the presence of CC-220 or a DMSO control. CC-220 was added at 0.01 nM, 0.1 nM, 1 nM, 10 nM and 100 nM concentrations. After pretreatment, PBMCs were incubated for an additional 18 hours or overnight in the presence of H929 target cells with or without the addition of 0.1 nM of Protein 1. Samples were analyzed via flow cytometry for H929 depletion. Specific lysis was calculated as following: (1−((test sample H929 count)/(H929 count in DMSO control without Protein 1)))*100. […] Data is normalized to % change of sample from the control treated DMSO sample+/−Protein 1. For % lysis without Protein 1, the control sample is PBMC pretreated with DMSO+H929. For % lysis with Protein 1, the control sample is PBMC pretreated with DMSO+H929+0.1 nM of Protein 1.

H929 target cells [7] = assay: Protein 1 induced ADCC after pretreatment of both PBMC and H929 target cells; assay type: cell-based, human
Protocol: PBMCs from a healthy donor were pre-incubated for 48 hours in the presence of CC-92480 or CC-220 (iberdomide) or a DMSO control. Additionally, H929 cells were also pre-incubated separately from the PBMCs for 48 hours with CELMoD. For CC-92480, PBMC and H929 were incubated in 0.1 nM, 1 nM or 10 nM concentrations. For CC-220, cells were incubated in 1 nM or 10 nM concentrations. Cells were also pre-incubated in with a DMSO control. After pretreatment, PBMC and H929 were combined based on their matched treatments and incubated for an additional 18 hours or overnight in the presence of a dose range of Protein 1, 0 nM to 10 nM. Samples were analyzed via flow cytometry for H929 depletion. Specific lysis was calculated as following: (1−((test sample H929 count)/(H929 count in DMSO control without PBMC and without Protein 1)))*100. PBMC and H929 cells were pretreated separately with varying doses of CC-92480 (FIG. 14A) or CC-220 (FIG. 14B) or a DMSO control for 48 hours. After pretreatment, PBMCs and H929 target cells were combined and co-cultured overnight with a dose range of Protein 1 at 0 nM to 10 nM. H929 cell depletion was analyzed by flow cytometry. […] Pretreatment of both PBMC and H929 target cells with CC-92480 or CC-220 (iberdomide) enhanced Protein 1 induced ADCC.

H929 target cells [8] = assay: Protein 1 induced ADCC after pretreatment of PBMCs with single concentration, Protein 1 dose range; assay type: cell-based, human; settings: PBMCs pretreated 24 or 48 hours with 0.1 nM CC-92480 or 1 nM CC-220; Protein 1 0 nM to 10 nM
Protocol: PBMCs from a healthy donor were preincubated for 24 hours or 48 hours in the presence of CC-92480 at 0.1 nM or CC-220 (iberdomide) at 1 nM or a DMSO control. After pretreatment, PBMCs were incubated for an additional 18 hours or overnight in the presence of H929 target cells with concentrations of Protein 1 ranging from 0 nM to 10 nM. Samples were analyzed via flow cytometry for H929 depletion. Specific lysis was calculated as following: (1−((test sample H929 count)/(H929 count in DMSO control without Protein 1)))*100. PBMCs were pretreated 0.1 nM of CC-92480 or 1 nM of CC-220 or DMSO control for either 24 hours (FIG. 13A) or 48 hours (FIG. 13B). After pretreatment, PBMCs were cultured with H929 target cells and 0 nM to 10 nM of Protein 1 overnight. H929 lysis was determined via flow cytometry. Pretreatment of PBMCs with single concentration of CC-92480 or CC-220 enhanced Protein 1 induced ADCC.

[9] = pretreatment 0.1 nM, 24 hour, donor 1
[10] = pretreatment 0.1 nM, 24 hour, donor 2
[11] = pretreatment 0.1 nM, 48 hour, donor 1
[12] = pretreatment 0.1 nM, 48 hour, donor 2
[13] = pretreatment 10 nM, 24 hour, donor 1
[14] = pretreatment 10 nM, 24 hour, donor 2
[15] = pretreatment 10 nM, 48 hour, donor 1
[16] = pretreatment 10 nM, 48 hour, donor 2

T2 sequence (Q13422 whole entry): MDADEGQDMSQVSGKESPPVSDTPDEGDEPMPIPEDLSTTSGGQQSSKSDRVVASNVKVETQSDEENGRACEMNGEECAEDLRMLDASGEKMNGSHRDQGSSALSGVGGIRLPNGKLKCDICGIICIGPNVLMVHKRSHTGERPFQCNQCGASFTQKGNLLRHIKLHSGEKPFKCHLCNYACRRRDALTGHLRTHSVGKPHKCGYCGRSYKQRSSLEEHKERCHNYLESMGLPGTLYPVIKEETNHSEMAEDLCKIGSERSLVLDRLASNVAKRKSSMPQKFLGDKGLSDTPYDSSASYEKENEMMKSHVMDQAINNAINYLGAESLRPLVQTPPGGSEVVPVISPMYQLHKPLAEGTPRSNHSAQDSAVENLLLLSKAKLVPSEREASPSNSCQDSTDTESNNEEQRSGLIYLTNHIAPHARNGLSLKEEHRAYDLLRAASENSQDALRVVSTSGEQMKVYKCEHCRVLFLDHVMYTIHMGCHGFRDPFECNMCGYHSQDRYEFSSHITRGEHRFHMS
T2 sequence (Q96SW2 whole entry): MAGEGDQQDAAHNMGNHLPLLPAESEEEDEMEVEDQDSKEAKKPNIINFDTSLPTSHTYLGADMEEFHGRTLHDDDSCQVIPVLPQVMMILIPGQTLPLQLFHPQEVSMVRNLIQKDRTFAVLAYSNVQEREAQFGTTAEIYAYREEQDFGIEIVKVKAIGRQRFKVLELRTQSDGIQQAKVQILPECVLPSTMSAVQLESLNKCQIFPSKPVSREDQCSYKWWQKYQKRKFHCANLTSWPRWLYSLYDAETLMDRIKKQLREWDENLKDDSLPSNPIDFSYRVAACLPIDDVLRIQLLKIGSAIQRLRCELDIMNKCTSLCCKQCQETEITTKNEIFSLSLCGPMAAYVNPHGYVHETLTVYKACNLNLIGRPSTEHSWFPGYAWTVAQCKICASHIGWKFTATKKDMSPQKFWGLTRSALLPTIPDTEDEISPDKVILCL
T2 sequence (Q16531 whole entry partner): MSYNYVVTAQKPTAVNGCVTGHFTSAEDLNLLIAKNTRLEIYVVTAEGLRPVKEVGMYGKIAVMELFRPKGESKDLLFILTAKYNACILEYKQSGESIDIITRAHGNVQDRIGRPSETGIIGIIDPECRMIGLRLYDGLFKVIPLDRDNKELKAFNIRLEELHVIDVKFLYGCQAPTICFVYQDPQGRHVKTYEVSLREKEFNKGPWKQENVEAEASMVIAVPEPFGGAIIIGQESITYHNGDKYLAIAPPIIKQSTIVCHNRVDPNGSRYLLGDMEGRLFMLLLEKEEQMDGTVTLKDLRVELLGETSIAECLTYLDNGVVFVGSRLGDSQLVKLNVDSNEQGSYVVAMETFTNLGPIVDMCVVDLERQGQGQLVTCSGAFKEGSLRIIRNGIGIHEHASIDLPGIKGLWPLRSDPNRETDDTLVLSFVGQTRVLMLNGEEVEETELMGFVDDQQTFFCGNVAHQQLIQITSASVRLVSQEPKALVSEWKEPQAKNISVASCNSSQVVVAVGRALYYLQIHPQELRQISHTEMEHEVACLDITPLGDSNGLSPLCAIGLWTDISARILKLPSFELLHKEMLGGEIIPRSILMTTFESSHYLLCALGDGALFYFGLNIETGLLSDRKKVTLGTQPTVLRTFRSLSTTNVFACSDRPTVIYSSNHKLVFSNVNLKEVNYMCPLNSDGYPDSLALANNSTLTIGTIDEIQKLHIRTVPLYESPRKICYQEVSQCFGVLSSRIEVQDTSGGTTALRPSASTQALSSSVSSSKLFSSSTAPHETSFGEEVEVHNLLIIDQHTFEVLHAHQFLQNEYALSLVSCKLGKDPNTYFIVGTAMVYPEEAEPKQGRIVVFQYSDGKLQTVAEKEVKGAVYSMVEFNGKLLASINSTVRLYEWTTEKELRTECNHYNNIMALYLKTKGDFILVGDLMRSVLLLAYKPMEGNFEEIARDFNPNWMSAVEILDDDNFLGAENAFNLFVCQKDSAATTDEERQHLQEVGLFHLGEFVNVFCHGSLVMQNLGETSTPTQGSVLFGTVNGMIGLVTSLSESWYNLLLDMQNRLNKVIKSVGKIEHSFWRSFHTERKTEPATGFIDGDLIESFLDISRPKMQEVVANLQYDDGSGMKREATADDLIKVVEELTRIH
T1 sequence (Q9UKT9 whole entry): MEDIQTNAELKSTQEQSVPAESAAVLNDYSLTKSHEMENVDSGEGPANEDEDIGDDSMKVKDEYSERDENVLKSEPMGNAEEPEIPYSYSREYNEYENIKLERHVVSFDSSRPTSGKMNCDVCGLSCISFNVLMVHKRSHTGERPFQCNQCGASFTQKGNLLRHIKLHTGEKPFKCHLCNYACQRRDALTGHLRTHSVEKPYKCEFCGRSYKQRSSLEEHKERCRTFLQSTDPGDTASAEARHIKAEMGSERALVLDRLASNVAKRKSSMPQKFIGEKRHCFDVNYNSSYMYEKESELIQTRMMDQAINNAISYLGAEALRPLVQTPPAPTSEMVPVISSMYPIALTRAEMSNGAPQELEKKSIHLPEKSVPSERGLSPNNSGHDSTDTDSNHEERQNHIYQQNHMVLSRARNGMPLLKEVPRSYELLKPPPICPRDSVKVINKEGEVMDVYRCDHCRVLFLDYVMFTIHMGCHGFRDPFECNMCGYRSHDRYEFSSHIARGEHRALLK
T1 sequence (Q96SW2 whole entry): as the sequence (Q96SW2 whole entry) above
T1 sequence (Q16531 whole entry partner): as the sequence (Q16531 whole entry partner) above

In the case of `Cc1nc2cccc(N)c2c(=O)n1C1CCC(=O)NC1=O` (centres unmarked) [avadomide, 3-(5-amino-2-methyl-4-oxoquinazolin-3(4H)-yl)piperidine-2,6-dione], the “degradation of Aiolos in DLBCL cells” value (Aiolos [1]) is reported as “mediated degradation”, the “induction of interferon stimulated genes in DLBCL cells” value [2] is reported as “induction” and the “NKG2D+ NK cells in DLBCL patient PBMC” value (NKG2D+ NK cells) is reported as “significantly expanded”. The “degradation of Ikaros in primary NK cells” value (Ikaros [3]) was “mediates degradation”, the “degradation of Ikaros in DLBCL cells” value (Ikaros [4]) was “mediated degradation” and the “degradation of Aiolos in primary NK cells” value (Aiolos [5]) was “mediates degradation”. For the same molecule, the “NK cell proliferation in DLBCL patient samples” value (NK cells) was “dose dependently enhanced”, the “expression of CD86” value (TMD8 cells) was “enhanced expression” and the “expression of HLA-DR” value (TMD8 cells) was “enhanced expression”.

With `N#Cc1ccc(N2CCN(Cc3ccc(COc4cccc5c4CN([C@H]4CCC(=O)NC4=O)C5=O)cc3)CC2)c(F)c1` [CC-92480, (S)-4-(4-(4-(((2-(2,6-dioxopiperidin-3-yl)-1-oxoisoindolin-4-yl)oxy)methyl)benzyl)piperazin-1-yl)-3-fluorobenzonitrile] the “Protein 1 induced ADCC (H929 lysis)” value (H929 target cells [6]; PBMCs pretreated 24 or 48 hours at different concentrations, 0.1 nM Protein 1 overnight) was “enhanced”, the “% lysis difference with Protein 1” value (H929 target cells [6]; [9]) was 48.85% and the “% lysis with Protein 1” value (H929 target cells [6]; [9]) was 58.27%. The “% lysis without Protein 1” value (H929 target cells [6]; [9]) was 9.42%, the “% lysis difference with Protein 1” value (H929 target cells [6]; [10]) was 76.64% and the “% lysis with Protein 1” value (H929 target cells [6]; [10]) was 67.82%. For the same molecule, the “% lysis without Protein 1” value (H929 target cells [6]; [10]) was −8.82%, the “% lysis difference with Protein 1” value (H929 target cells [6]; [11]) was 79.40% and the “% lysis with Protein 1” value (H929 target cells [6]; [11]) was 64.54%. For the same molecule, the “% lysis without Protein 1” value (H929 target cells [6]; [11]) was −14.86%, the “% lysis difference with Protein 1” value (H929 target cells [6]; [12]) was 36.79% and the “% lysis with Protein 1” value (H929 target cells [6]; [12]) was 82.02%. The “% lysis without Protein 1” value (H929 target cells [6]; [12]) was 45.23%, the “% lysis difference with Protein 1” value (H929 target cells [6]; [13]) was 27.75% and the “% lysis with Protein 1” value (H929 target cells [6]; [13]) was 28.79%. For the same molecule, the “% lysis without Protein 1” value (H929 target cells [6]; [13]) was 1.04%, the “% lysis difference with Protein 1” value (H929 target cells [6]; [14]) was −33.32% and the “% lysis with Protein 1” value (H929 target cells [6]; [14]) was −43.51%. The “% lysis without Protein 1” value (H929 target cells [6]; [14]) was −10.19%, the “% lysis difference with Protein 1” value (H929 target cells [6]; [15]) was 72.35% and the “% lysis with Protein 1” value (H929 target cells [6]; [15]) was 42.46%. The “% lysis without Protein 1” value (H929 target cells [6]; [15]) was −29.89%, the “% lysis difference with Protein 1” value (H929 target cells [6]; [16]) was 52.72% and the “% lysis with Protein 1” value (H929 target cells [6]; [16]) was 59.57%. The “% lysis without Protein 1” value (H929 target cells [6]; [16]) was 6.85%, the “susceptibility of H929 target cells to lysis” value (H929 target cells [7]; H929 target cells pretreated 48 hours, most notably at Protein 1 0.01-0.1 nM) was “more susceptible to lysis” and the “Protein 1 induced ADCC (H929 cell depletion)” value (H929 target cells [7]; PBMC and H929 pretreated separately 48 hours, Protein 1 0 nM to 10 nM) was “enhanced”. The “Protein 1 induced ADCC (H929 lysis)” value (H929 target cells [8]) was “enhanced”.

With `Nc1cccc2c1CN(C1CCC(=O)NC1=O)C2=O` (centres unmarked) [lenalidomide, 3-(7-amino-3-oxo-1H-isoindol-2-yl)piperidine-2,6-dione] the “NKG2D+ NK cells in DLBCL patient PBMC” value (NKG2D+ NK cells) was “significantly expanded”.
